{"source": "paper PMC7957578", "about": "“N-(1,3,4-Oxadiazol-2-yl)Benzamides as Antibacterial Agents against Neisseria gonorrhoeae” (International Journal of Molecular Sciences, 2021)", "key": {"[1]": {"system": "N. gonorrhoeae strain 181", "assay": "MIC by broth microdilution against N. gonorrhoeae strain 181", "type": "cell-based, Neisseria gonorrhoeae", "details": "Neisseria gonorrhoeae; N. gonorrhoeae strain 181; read-out: MIC", "protocol": "(§1) Briefly, bacteria were grown overnight on chocolate agar II at 37° C in the presence of 5% CO2. Afterwards, a bacterial suspension equivalent to 1.0 McFarland standard was prepared and diluted in brucella broth supplemented with yeast extract, neopeptone, hematin, pyridoxal, and NAD. Test agents were added in the first row of the 96-well plates and serially diluted along the plates. Plates were then incubated at 37° C in the presence of 5% CO2 for 24 h. […] Plates were then incubated at 37 ° C in the presence of 5% CO2 for 24 h. The MBC was categorized as the lowest concentration that reduced bacterial growth by 99.9% [45, 46, 47]."}, "[2]": {"system": "N. gonorrhoeae 166", "assay": "MIC/MBC against N. gonorrhoeae clinical isolate 166", "type": "cell-based", "details": "Neisseria gonorrhoeae", "protocol": "as §1"}, "[3]": {"system": "panel drug-resistant pathogenic N. gonorrhoeae strains", "assay": "MIC/MBC against a panel of drug-resistant N. gonorrhoeae strains", "type": "cell-based, Neisseria gonorrhoeae", "details": "MBC the same as or one-fold higher than MIC"}, "[4]": {"system": "VRE. faecalisATCC 51575", "assay": "MIC/MBC (CLSI broth microdilution) against VRE faecalis ATCC 51575", "type": "cell-based", "details": "Enterococcus, VRE faecalis ATCC 51575", "protocol": "(§2) The minimum inhibitory concentrations (MICs) of the tested compounds and control drugs, linezolid, vancomycin, and gentamicin, were determined using the broth microdilution method according to the guidelines outlined by the Clinical and Laboratory Standards Institute (CLSI) against clinically relevant bacterial (Staphylococcus aureus, MRSA, Escherichia coli, Enterococcus faecalis and Enterococcus faecium strains. S. aureus, MRSA, E. coli, Enterococcus faecalis and Enterococcus faecium were grown aerobically overnight on tryptone soy agar (TSA) plates at 37° C. Afterwards, a bacterial solution equivalent to 0.5 McFarland standard was prepared and diluted in cation-adjusted Mueller–Hinton broth (CAMHB) (for S. aureus, MRSA, and E. coli) to achieve a bacterial concentration of about 5 × 10^5 CFU/mL. Enterococcus faecalis and Enterococcus faecium 0.5 McFarland standard solution was diluted in tryptone soy broth (TSB) to achieve a bacterial concentration of about 5 × 10^5 CFU/mL. Compounds and control drugs were added in the first row of 96-well plates and serially diluted with the corresponding media containing bacteria. Plates were then incubated as previously described. […] The minimum bactericidal concentration (MBC) was tested by spotting 4 µL from wells with no growth onto TSA plates. Plates were incubated at 37 ° C for at least 18 h before recording the MBC. The MBC was categorized as the lowest concentration that reduced bacterial growth by 99.9% [45, 46, 47]."}, "[5]": {"system": "VRE. faecium ATCC 700221", "assay": "MIC/MBC (CLSI broth microdilution) against VRE faecium ATCC 700221", "type": "cell-based", "details": "Enterococcus, VRE faecium ATCC 700221", "protocol": "as §2"}, "[6]": {"assay": "Caco-2 bidirectional permeability assay", "type": "in vitro ADME, human", "details": "human, Caco-2", "text": "(§3) Oral bioavailability is a highly important consideration when developing bioactive molecules as therapeutic agents. A critical factor of oral bioavailability is human intestinal absorption. The Caco-2 bidirectional permeability assay is the most widely used in vitro model for predicting if a bioactive molecule can have adequate systemic absorption. Thus, we selected HSGN-238 to act as a model to analyze the drug-like properties of newly synthesized N-(1,3,4-oxadiazol-2-yl)benzamides.\n(§4) Assay and data analysis were performed by Eurofins Panlabs (MO, USA) according to a previously reported protocol. The apparent permeability coefficient (Papp) of the tested agents was calculated using the equation below: Papp(cm/s)=VR∗CR,end/Δt∗1/A∗(CD,mid−CR,mid), where VR is the volume of the receiver chamber. CR,end is the concentration of the test compound in the receiver chamber at the end time point, Δt is the incubation time, and A is the surface area of the cell monolayer. CD,mid is the calculated mid-point concentration of the test compound in the donor side, which is the mean value of the donor concentration at 0 minutes and the donor concentration at the end time point. CR,mid is the mid-point concentration of the test compound in the receiver side, which is one half of the receiver concentration at the end time point. Concentrations of the test compound were expressed as peak areas of the test compound."}, "[7]": {"system": "Caco-2 bilayers", "assay": "Caco-2 bidirectional permeability assay", "type": "in vitro ADME, human", "details": "Caco-2 permeability classification", "text": "as §3, §4"}}, "data": [{"smiles": "O=C(Nc1nnc(-c2ccc(Cl)s2)o1)c1ccc(OC(F)(F)F)cc1", "note": "[HSGN-238, N-(5-(5-Chlorothiophen-2-yl)-1,3,4-oxadiazol-2-yl)-4-(trifluoromethoxy)benzamide]", "values": [{"measurement": "MIC", "setting": "[1]", "value": 0.125, "unit": "µg/mL"}, {"measurement": "MBC", "setting": "[2]", "value": 0.25, "unit": "µg/mL"}, {"measurement": "MIC", "setting": "[2]", "value": 0.125, "unit": "µg/mL"}, {"measurement": "type of activity from MBC versus MIC", "setting": "[3]", "value": "bactericidal activity"}, {"measurement": "MBC", "setting": "[4]; read-out: MBC", "value": 32, "unit": "µg/mL"}, {"measurement": "MIC", "setting": "[4]; read-out: MIC", "value": 1, "unit": "µg/mL"}, {"measurement": "MBC", "setting": "[5]; read-out: MBC", "value": 8, "unit": "µg/mL"}, {"measurement": "MIC", "setting": "[5]; read-out: MIC", "value": 0.25, "unit": "µg/mL"}, {"measurement": "Papp A→B", "setting": "[6]; apical to basolateral", "value": 82.3, "unit": "×10⁻⁶ cm/s"}, {"measurement": "Papp B→A", "setting": "[6]; basolateral to apical", "value": 32.9, "unit": "×10⁻⁶ cm/s"}, {"measurement": "Notes (permeability class)", "setting": "[7]", "value": "High Permeability"}]}]}
